From PubChem BioAssay (NCI)
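Assay format: 96-well plates, 48-hour exposure. At the GI50, growth is halved. At the TGI there is no net growth.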

Key:
Test in all cases: inhibition of tumour cell growth, NCI panel, 48 h
[1] = test system: A549 NSCLC
[2] = test system: M14 melanoma
[3] = test system: UACC-257 melanoma
[4] = test system: DU-145 prostate
[5] = test system: EKVX NSCLC
[6] = test system: SN12C renal
[7] = test system: IGROV1 ovarian
[8] = test system: NCI-H522 lung
[9] = test system: RPMI-8226 leukemia
[10] = test system: MALME-3M melanoma
[11] = test system: MDA-MB-231 breast
[12] = test system: NCI-H226 lung
[13] = test system: RXF 393 renal
[14] = test system: HT29 colon
[15] = test system: COLO 205 colon
[16] = test system: A498 renal
[17] = test system: SK-MEL-5 melanoma
[18] = test system: U251 CNS
[19] = test system: BT-549 breast
[20] = test system: TK-10 renal
[21] = test system: OVCAR-5 ovarian
[22] = test system: KM12 colon
[23] = test system: HCT-15 colon
[24] = test system: SK-OV-3 ovarian
[25] = test system: HCT-116 colon
[26] = test system: OVCAR-4 ovarian
[27] = test system: OVCAR-3 ovarian
[28] = test system: K-562 leukemia
[29] = test system: SK-MEL-28 melanoma
[30] = test system: NCI/ADR-RES ovarian
[31] = test system: HOP-92 NSCLC
[32] = test system: SNB-19 CNS
[33] = test system: OVCAR-8 ovarian
[34] = test system: SNB-75 CNS
[35] = test system: NCI-H460 lung
[36] = test system: SW-620 colon
[37] = test system: PC-3 prostate
[38] = test system: HOP-62 NSCLC
[39] = test system: SF-268 CNS
[40] = test system: SK-MEL-2 melanoma
[41] = test system: LOX IMVI melanoma
[42] = test system: ACHN renal
[43] = test system: HL-60(TB) leukemia
[44] = test system: HCC-2998 colon
[45] = test system: HS 578T breast
[46] = test system: SF-539 CNS
[47] = test system: MOLT-4 leukemia
[48] = test system: T-47D breast
[49] = test system: 786-0 renal
[50] = test system: MCF7 breast
[51] = test system: SF-295 CNS
[52] = test system: UACC-62 melanoma
[53] = test system: MDA-MB-435
[54] = test system: UO-31 renal
[55] = test system: CCRF-CEM leukemia
[56] = test system: SR leukemia
[57] = test system: CAKI-1 renal

Structure (SMILES): COCCOc1ccc2ncc(C#Cc3cncc(C(=O)Nc4ccc(CN5CCN(C)CC5)c(C(F)(F)F)c4)c3)n2n1
- GI50 [1]: 885 nM
- TGI [1]: 2610 nM
- GI50 [2]: 265 nM
- TGI [2]: 1130 nM
- GI50 [3]: 1200 nM
- TGI [3]: 5690 nM
- GI50 [4]: 1060 nM
- TGI [4]: 4760 nM
- GI50 [5]: 951 nM
- TGI [5]: 7750 nM
- GI50 [6]: 516 nM
- TGI [6]: 3670 nM
- GI50 [7]: 351 nM
- TGI [7]: 2350 nM
- GI50 [8]: 620 nM
- TGI [8]: 1450 nM
- GI50 [9]: 874 nM
- TGI [9]: 2590 nM
- GI50 [10]: 220 nM
- TGI [10]: 868 nM
- GI50 [11]: 274 nM
- TGI [11]: 1240 nM
- GI50 [12]: 271 nM
- TGI [12]: 1540 nM
- GI50 [13]: 733 nM
- TGI [13]: 1410 nM
- GI50 [14]: 372 nM
- TGI [14]: 3090 nM
- GI50 [15]: 529 nM
- TGI [15]: 1540 nM
- GI50 [16]: 1170 nM
- TGI [16]: 2250 nM
- GI50 [17]: 1700 nM
- TGI [17]: 7260 nM
- GI50 [18]: 2190 nM
- TGI [18]: 10200 nM
- GI50 [19]: 1540 nM
- TGI [19]: 4280 nM
- GI50 [20]: 1590 nM
- TGI [20]: 5860 nM
- GI50 [21]: 663 nM
- TGI [21]: 6070 nM
- GI50 [22]: 14 nM
- TGI [22]: 2720 nM
- GI50 [23]: 549 nM
- TGI [23]: 2510 nM
- GI50 [24]: 2070 nM
- TGI [24]: 6400 nM
- GI50 [25]: 227 nM
- TGI [25]: 1020 nM
- GI50 [26]: 840 nM
- TGI [26]: 8450 nM
- GI50 [27]: 1090 nM
- TGI [27]: 7440 nM
- GI50 [28]: 5 nM
- TGI [28]: 937 nM
- GI50 [29]: 676 nM
- TGI [29]: 1720 nM
- GI50 [30]: 1210 nM
- TGI [30]: 3410 nM
- GI50 [31]: 142 nM
- TGI [31]: 628 nM
- GI50 [32]: 3920 nM
- TGI [32]: 15000 nM
- GI50 [33]: 874 nM
- TGI [33]: 2220 nM
- GI50 [34]: 272 nM
- TGI [34]: 1260 nM
- GI50 [35]: 708 nM
- TGI [35]: 1470 nM
- GI50 [36]: 402 nM
- TGI [36]: 1350 nM
- GI50 [37]: 1790 nM
- TGI [37]: 8290 nM
- GI50 [38]: 997 nM
- TGI [38]: 4370 nM
- GI50 [39]: 787 nM
- TGI [39]: 2130 nM
- GI50 [40]: 403 nM
- TGI [40]: 1130 nM
- GI50 [41]: 367 nM
- TGI [41]: 1040 nM
- GI50 [42]: 364 nM
- TGI [42]: 2010 nM
- GI50 [43]: 311 nM
- TGI [43]: 1480 nM
- GI50 [44]: 1180 nM
- TGI [44]: 7540 nM
- GI50 [45]: 598 nM
- TGI [45]: 2640 nM
- GI50 [46]: 209 nM
- TGI [46]: 3090 nM
- GI50 [47]: 696 nM
- TGI [47]: 3730 nM
- GI50 [48]: 2720 nM
- TGI [48]: 12500 nM
- GI50 [49]: 802 nM
- TGI [49]: 1640 nM
- GI50 [50]: 166 nM
- TGI [50]: 968 nM
- GI50 [51]: 3360 nM
- TGI [51]: 12700 nM
- GI50 [52]: 1500 nM
- TGI [52]: 7660 nM
- GI50 [53]: 421 nM
- TGI [53]: 4440 nM
- GI50 [54]: 622 nM
- TGI [54]: 3190 nM
- GI50 [55]: 700 nM
- TGI [55]: 4630 nM
- GI50 [56]: 687 nM
- TGI [56]: 2480 nM
- GI50 [57]: 484 nM
- TGI [57]: 2920 nM
